From paper PMC9649909, “Wnt-pathway inhibitors with selective activity against triple-negative breast cancer: From thienopyrimidine to quinazoline inhibitors” (Frontiers in Pharmacology, 2022)
Where two headings read alike, the source gives them in different places.

What was measured:
[1] = test system: MDA-MB-231 TNBC cell line; test: MTT survival assay MDA-MB-231; type: cell-based; conditions: for IC50: Homo sapiens
Protocol: (§1) Indicated TNBC cell lines were detached and resuspended at 120,000 cells/ml and added into each well of a transparent 384-well plate in the final volume of 20 µl/well. The cells were maintained in DMEM containing 10% FBS at 37°C, 5% CO2 overnight. Next day, the medium in each well was replaced by 40 μl of the fresh one containing the indicated concentrations of compounds. In case of drug combination experiments, each compound dilution was delivered in corresponding well in 20 μl of medium. […] After incubation for 3–4 days, depending on the cell line, the medium in each well was replaced by 25 μl of 0.5 mg/ml Thiazolyl blue solution in 1xPBS following by incubation for 3 h at 37°C. Then the solution was removed and 25 μl DMSO was added into each well. Absorbance at 510 nm was measured in a Tecan Infinite M200 PRO plate reader.

[2] = test system: HCC1395 TNBC cell line; test: MTT survival assay HCC1395; type: cell-based; conditions: Homo sapiens, HCC1395; Table S2; read-out: MTT HCC-1395 IC50
Protocol: as §1

[3] = test system: β-catenin-dependent Wnt-pathway; test: TopFlash luciferase reporter assay, CHIR99021-stimulated, HCC1395; type: cell-based; conditions: for Emax / IC50: Homo sapiens; for Emax / IC50 / HCC1395 TopFlash Efficacy: stimulation with CHIR99021 (GSK3β inhibitor); for Emax: read-out: HCC1395 TopFlash Efficacy; for IC50: read-out: HCC1395 TopFlash IC50; for fold improvement in the activity compared to 4a: TopFlash IC50 vs 4a
From the text: Both stimulations abolish formation of the destruction complex, a multiprotein complex consisting of Axin, adenomatous polyposis coli (APC), glycogen synthase kinase three beta (GSK3β), and casein kinase one alpha (CK1α). Upon inactivation of the complex, β-catenin accumulates in the cytoplasm and translocates into the nucleus where it interacts with transcription factors. These downstream events are quantified by a Luciferase transcription-based readout assay (TopFlash assay).

[4] = in vitro; conditions: human
Protocol: The simplicity of the scaffold combined with synthetic accessibility allows building a library of compounds and performing structure activity relationship (SAR) studies of the three main parts of the molecule: the top part, the linker and the core (Figure 2).
The synthesized compounds were used to explore SAR of three defined areas of investigation (Figure 2). All compounds were tested in the HCC1395 TNBC cell line using the GSK3β inhibitor to induce β-catenin signaling since 4a acted downstream of GSK3β (Figure 2). Both inhibition of β-catenin signaling measured by the TopFlash reporter and cytotoxicity measured by the Renilla reporter were assessed.
The Wnt3a or CHIR99021-stimulated luciferase activity in HCC1395 TNBC cell line stably transfected with the TopFlash reporter was analyzed essentially as described for the BT-20 TNBC cell line ([Shaw et al., 2019b]; [Koval et al., 2021]). Reporter cells were seeded at 10,000 cells/well in a white opaque 384-well plate in the final volume of 20 μl of DMEM medium supplemented with 10% FCS. The cells were maintained incubated at 37°C, 5% CO2 overnight for attachment. Subsequently, they were transfected by a plasmid encoding constitutively expressed Renilla luciferase under the CMV promoter overall as described in the manufacturer’s protocol using 12 μg/ml of DNA and 40 μl/ml XtremeGENE nine reagent. The next day, the medium in each well was replaced with a 10 μl of fresh medium containing compound of interest, and, after 1 h of preincubation with the compounds, additional 10 μl of medium supplemented with Wnt3a [purified as described ([Willert et al., 2003]; [Koval and Katanaev, 2011])] or CHIR99021 were added creating respective final concentrations of 2.5 μg/ml or 5 μM of each. In case of other signal transduction reporters, no additional stimulation was performed. Compound dilutions were prepared by serial dilution in DMSO and diluted with the amount of medium necessary to obtain their final concentrations indicated on the figures and tables and maintain concentration of DMSO of 0.5% in all assay points. After overnight incubation, the supernatant in each well was removed, and the luciferase activity was measured as described ([Dyer et al., 2000]; [Huber et al., 2021]; [Pellissier et al., 2021]). The culture medium was completely removed from all wells of the plate. Finally, the luciferase activity of the firefly and Renilla luciferases was detected sequentially in individual wells of a 384-well plate through injection of corresponding measurement solutions and immediate reading (400 ms integration time) in Infinite M Plex multifunctional plate reader with injection module.

[5] = test system: BT-20 TNBC cell line; test: MTT survival assay BT-20; type: cell-based; conditions: Homo sapiens, BT-20; Table S2; read-out: MTT BT-20 IC50
Protocol: as §1

[6] = test system: HCC1806 TNBC cell line; test: MTT survival assay HCC1806; type: cell-based; conditions: for IC50: Homo sapiens, HCC1806
Protocol: as §1

[7] = test system: MDA-MB-468 TNBC cell line; test: MTT survival assay MDA-MB-468; type: cell-based; conditions: Homo sapiens, MDA-MB-468; Table S2
Protocol: as §1

[8] = test system: non-cancerous breast epithelial cell line MCF10a; test: MTT survival assay MCF10a; type: cell-based; conditions: for IC50: Homo sapiens, MCF-10A
Protocol: as §1

[9] = MDA-MB-231, Table S2, read-out: MTT MDA-MB-231 IC50
[10] = Table S2, read-out: MTT HCC1806 IC50
[11] = Table S2, read-out: MTT MCF10 IC50

Row | SMILES | IC50 [1, 9] | MTT MDA-MB-231 Comments ([1]; Table S2) | IC50 [2] | Emax ([3]; HCC1395, HCC1395) | IC50 ([3]; HCC1395, HCC1395) | IC50 ([4]; HCC1395 Cytotoxicity IC50) | IC50 [5] | IC50 [6, 10] | MTT HCC1806 Comments ([6]; Table S2) | IC50 [7] | IC50 [8, 11] | MTT MDA-MB-231 plateau ([1]; Table S2) | fold improvement in the activity compared to 4a [3] | HCC1395 TopFlash Efficacy ([3]; HCC1395) | further results
1 | Cc1cccc(CNc2ncnc3sccc23)c1 [Compound 4n, N-(3-methylbenzyl)thieno[2,3-d]pyrimidin-4-amine] | > 10 µM | Inactive | 1.05 µM | 52.9 ± 6.8% | 3.76 ± 1.9 µM | > 50 µM | 4.72 µM | > 10 µM | Inactive | 0.48 µM | > 10 µM | – | – | – | MTT MCF10 Comments ([8]; Table S2): Inactive
2 | Clc1ccc(CNc2ncnc3sccc23)cc1 [Compound 4j, N-(4-chlorobenzyl)thieno[2,3-d]pyrimidin-4-amine] | 45.3 µM | – | 1.42 µM | 74.6 ± 12% | 3.19 ± 1.64 µM | > 50 µM | 6.29 µM | 26.2 µM | – | 3.93 µM | 20.4 µM | 92.63 | 2 fold | – | –
3 | Cc1ccc(CNc2ncnc3sccc23)cc1 [Compound 4o, N-(4-methylbenzyl)thieno[2,3-d]pyrimidin-4-amine] | > 10 µM | Inactive | 1.35 µM | 72.7 ± 19.5% | 4.61 ± 1.91 µM | > 50 µM | 2.85 µM | 2.71 µM | – | 1.02 µM | 6.18 µM | – | 2 fold | – | –
4 | COc1ccccc1CNc1ncnc2sccc12 [Compound 4b, N-(2-methoxybenzyl)thieno[2,3-d]pyrimidin-4-amine] | > 50 µM | – | 8.17 µM | 40.7% | 2.79 ± 0.67 µM | > 50 µM | > 50 µM | > 50 µM | Inactive | 11.8 µM | 33.2 µM | – | 3 fold | 40.7 ± 3.1% | IC50 ([1]; MDA-MB-231, Figure 3B heatmap, read-out: IC50, μM (MDA-MB-231)): > 10 µM; IC50 ([8]; Figure 3B heatmap, read-out: IC50, μM (MCF10)): > 10 µM
5 | COc1ccc(CNc2ncnc3sccc23)cc1 [Compound 4d, N-(4-methoxybenzyl)thieno[2,3-d]pyrimidin-4-amine] | > 50 µM | Inactive | > 50 µM | – | > 50 µM | – | 39.8 µM | 46.5 µM | – | 14.2 µM | > 50 µM | – | – | – | TopFlash activity in words ([3]; HCC1395, CHIR99021): abrogated the activity; GSK HCC1395 Comments ([3]; Table S2): Inactive; IC50 ([6]; Figure 3B heatmap, read-out: IC50, μM (HCC1806)): > 50 µM
6 | Clc1ccc(CNc2ncnc3ccccc23)cc1 [Compound 9e, N-(4-chloro)quinazolin-4-amine] | 26.9 µM | – | 0.92 µM | – | – | – | 9.6 µM | 11.4 µM | – | 2.22 µM | > 10 µM | 100 | – | – | IC50 ([1]; MDA-MB-231, read-out: IC50, μM (MDA-MB-231)): > 10 µM; Emax ([3]; HCC1395): 96 ± 5.7%; IC50 ([3]; HCC1395): 2.18 ± 0.85 µM; IC50 [4]: > 50 µM
7 | COc1cc(CNc2ncnc3sccc23)ccc1Cl [Compound 4q, N-(4-chloro-3-methoxybenzyl)thieno[2,3-d]pyrimidin-4-amine] | > 10 µM | Inactive | 0.63 µM | 68.5 ± 2.9% | 1.33 ± 0.07 µM | > 50 µM | 0.96 µM | > 10 µM | Inactive | 0.57 µM | > 10 µM | – | – | – | MTT MCF10 Comments ([8]; Table S2): Inactive
8 | CN(CCc1ccccc1)c1ncnc2sccc12 [Compound 5j, N-methyl-N-phenethylthieno[2,3-d]pyrimidin-4-amine] | 4.71 µM | – | 2.07 µM | 100% | 2.04 ± 2.55 µM | > 50 µM | 1.63 µM | 17.2 µM | – | 0.92 µM | 1.53 µM | 92.68 | – | 100 ± 0% | selectivity over the control cells (difference in IC50, MCF10a vs HCC1395) ([8]; MTT IC50 ratio MCF10a / HCC1395): less than 3 fold
9 | COc1ccc(CNc2ncnc3ccccc23)cc1 [Compound 9c, N-(4-methoxybenzyl)quinazolin-4-amine] | > 10 µM | Inactive | 1.17 µM | 81.5% | 4.76 ± 0.23 µM | – | 3.81 µM | > 10 µM | Inactive | 0.44 µM | 7.94 µM | – | – | 81.5 ± 10.61% | IC50 [4]: > 50 µM
